Values quoted from earlier work as cited in paper PMC10017685 (Nature Communications, 2023).
Read-outs that look alike come from different tables or passages of the source.

System: human erythrocytes
Parameters: method as in DBAASP
Conditions: cited from earlier work
[1] = toxicity class label 1 or 0, meaning of the labels not given, DBAASP HC50 data, human erythrocytes, ref DBAASP

Sequence	Class (dedicated toxicity dataset used for toxicity classifier evaluation) [1]	Class (dedicated toxicity dataset used for toxicity classifier evaluation)
FLPFLKSILGKIL [DBAASP_13349]	0	–
SAVWRHWRRFWLRKHRKH [DBAASP_9988]	0	–
GLLGKLLKIAAKVGKKLL [DBAASP_4927]	1	–
WRWLRRIW [DBAASP_10631]	0	–
GLNALKKVFQGIHKAIKLINNHVQ [DBAASP_6925]	0	–
HFKGTLVNLAKKIL [DBAASP_5016]	0	–
KIAKGALKALKIAKGALKAL [DBAASP_11229]	0	–
GLKGLLGKALKGIGKHIGKAQGC [DBAASP_6808]	0	–
FFPIVGKLLSGLF [DBAASP_1882]	0	–
GIGKHVGKALKGLKGLLKGLGEC [DBAASP_6804]	0	–
GWLDVAKKIGKAAFNVAKNFL [DBAASP_10137]	0	–
ILGAILPLVSGLLSNKL [DBAASP_4393]	0	–
FFFLSRIF [DBAASP_3232]	0	–
FLPIIGQLLSGLL [DBAASP_4222]	0	–
FLPAIAGLAAKFLPKIFCAITKKC [DBAASP_13908]	1	–
FPLTWLKWWKWKK [DBAASP_17184]	0	–
FLPAALAGIGGILGKLF [DBAASP_9469]	0	–
IPPFIKKVLTTVF [DBAASP_3483]	0	–
GLASTIGSLLGKFAKGGAQAFLQPK [DBAASP_2288]	0	–
HFLGTLVNLAKKIK [DBAASP_5026]	0	–
GWLDVAKKKGKAAFNVAKNFI [DBAASP_7674]	0	–
RQIKIWFQNRRLKWKK [DBAASP_8797]	0	–

Sequence	Class (dedicated toxicity dataset used for toxicity classifier evaluation) [1]	Class (dedicated toxicity dataset used for toxicity classifier evaluation)
FKRIVQRIKDFLR [DBAASP_3393]	0	–
GLLSNVAGLLKQFAKGGVNAVLNPK [DBAASP_5717]	0	–
HFLGTKVNLAKKIL [DBAASP_5020]	0	–
FWGFLGKLAMKAVPSLIGGNKSSSK [DBAASP_8439]	0	–
KFKKLFKKLSPVFKRIVQRIKDFLR [DBAASP_13190]	0	–
GLNALKKVFQGIHEAFKLINNHVQ [DBAASP_6936]	0	–
FLPGLIKAAVGVGSTILCKITKKC [DBAASP_8373]	0	–
GLFDIIKKIAESF [DBAASP_779]	0	–
GLLKRIKLLL [DBAASP_3143]	0	–
FVDLKKIANIINSIF [DBAASP_6701]	0	–
KRRVRWIIW [DBAASP_17712]	0	–
FLPFLLSALPKVFCFFSKKC [DBAASP_6702]	1	–
GLLGPLLKIAAKVGSNLL [DBAASP_3157]	0	–
GLLGPLLKIAAKVGSKLL [DBAASP_4926]	0	–
GLLKIIKTLL [DBAASP_3137]	1	–
RQIKIWFQNRRMKWKK [DBAASP_6203]	0	–
RWRRFWRR [DBAASP_12823]	0	–
GLFDVIKKVLKKIGGL [DBAASP_8592]	1	–
FLSALWGVAKSLF [DBAASP_18190]	0	–
VRRFPWWAPFLRR [DBAASP_14267]	0	–
GLNALKKVFQGFHEAIKLINNHVQ [DBAASP_6935]	0	–
FFPGIIKVAGAILPTAICAITKRC [DBAASP_10252]	0	–

Sequence	Class (dedicated toxicity dataset used for toxicity classifier evaluation) [1]	Class (dedicated toxicity dataset used for toxicity classifier evaluation)
GILSSLLKKLKKWIAK [DBAASP_8917]	–	0
GILKTIKSIASKLKRKAK [DBAASP_5476]	0	–
FLRFAGSVIHGAGHLVHHIGVAL [DBAASP_11350]	0	–
GLLKRIATLL [DBAASP_3123]	0	–
ALFKTMLKKLGTMAL [DBAASP_10098]	0	–
RQYMRQIEQALRYGYRISRR [DBAASP_14411]	0	–
FLSLIPKAISAISALANHF [DBAASP_12627]	0	–
FLPAIAGVAAKFLPKIFCAITKKC [DBAASP_13909]	0	–
RAGLQFPVGRVHRLLRK [DBAASP_7651]	0	–
VKRWKKWRWKWKKWV [DBAASP_8775]	–	0
ILGKLLKTAAGLLSNL [DBAASP_4361]	1	–
FLGALFKVASKLVPAAICSISKKC [DBAASP_15602]	0	–
GVGKFLHSAKKFGQALVSEIMKS [DBAASP_3770]	0	–
FLGSLFSIGSKLLPGVIKLFQRKKQ [DBAASP_17526]	1	–
GFKDLLKGAAKALKKTVLF [DBAASP_4908]	0	–
FLPVIASVAAKVLPKVFCFITKKC [DBAASP_6169]	1	–
FLPILAGLAAKIVPKLFCLATKKC [DBAASP_2201]	1	–
GLFDIWKKWRWRR [DBAASP_10053]	0	–
VRRFPYWYPFLRR [DBAASP_14264]	0	–
FLSLIPKIATGIAALAKHL [DBAASP_10833]	1	–
GILSSLWKKLKKIIAK [DBAASP_8913]	–	0
HFLGTLVNLKKKIL [DBAASP_5024]	0	–

Sequence	Class (dedicated toxicity dataset used for toxicity classifier evaluation) [1]	Class (dedicated toxicity dataset used for toxicity classifier evaluation)
FIGMIPGLIGGLISAIK [DBAASP_9867]	1	–
GWKKWLRKGAKHLGQAAIK [DBAASP_1434]	0	–
AFALIAGALYRIFHRR [DBAASP_16955]	0	–
LWKIWWKIWRVWKNWR [DBAASP_17523]	1	–
ALHKTMLKKLGTMAL [DBAASP_10090]	0	–
FPVTWPTKWLKG [DBAASP_9721]	0	–
GIWSSLLKKLKKIIAK [DBAASP_8911]	0	–
KWFKIQLQIKKWKNKK [DBAASP_8806]	0	–
LWKIWKKIWRVGWNWR [DBAASP_17513]	0	–
GLKALKKVFKGIHKAIKLINNHVQ [DBAASP_6929]	0	–
WKRRIKIWKKIR [DBAASP_10625]	0	–
GFKDLLKGAAKALVKTVLK [DBAASP_11235]	0	–
KKLIKKILKIL [DBAASP_5047]	0	–
FLPILAGLAAKLVPKVFCSITKKC [DBAASP_4220]	1	–
FLSTLLNVASNVVPTLICKITKKC [DBAASP_1890]	1	–
WWRLRRIW [DBAASP_10632]	0	–
KLGFENFLVKALKTVMHVPTSPLL [DBAASP_5711]	0	–
GLLRASSKWGRKYYVDLAGCAKA [DBAASP_12529]	0	–
DIFGAIWPLALGALKNLIK [DBAASP_9407]	1	–
GFCWRACVYRNGVRVCYRRCN [DBAASP_17226]	–	0
GILKSLLKKLKKIIAK [DBAASP_8908]	–	0
WWWLRRIR [DBAASP_10635]	0	–
